According to patent publication US20220354119A1, “COMPOSITION OF A RHEOLOGY MODIFIER AND DIHALOHYDANTOIN” (Rohm and Haas Company, priority 2019, published 2022):
“Also recorded” adds a separate entry of the source. Structures can show the parent of a compound that is named as a salt.

Tested on: not listed separately
Assay: Heat age stability of HEUR-biocide formulation (appearance after heat aging)
Format: physicochemical
Conditions: biocide admixed with HEUR rheology modifier (RM-2020E or RM-8W); oven 50° C. for 2 weeks
Procedure: A number of biocides were admixed with ACRYSOL™ RM-2020E Rheology Modifier (RM-2020E, A Trademark of The Dow Chemical Company or Its Affiliates) and ACRYSOL™ RM-8W (RM-8W). In addition to testing biocides admixed with RM-2020E or RM-8W as-delivered, acid was also added to the rheology modifiers to lower the pH to approximately 4.5. Samples prepared with the biocide didecyldimethylammonium chloride were only tested when RM-2020E and RM-8W were prepared with 10-15% surfactant in the composition. The compositions were heat-aged in an oven maintained at 50° C. for 2 weeks. Heating aging was also carried out for RM-2020E in the absence of any biocide. If the composition failed the heat aging test, it was not tested for efficacy.
All heat aged samples were compared against a reference HEUR (RM-2020E or
The pass/fail criterion for biocide efficacy was determined by the formation of less than 1×10^4 colony forming units per mL (CFU/mL) of sample tested.

| Compound | Sample Appearance after Heat Age testing |
| --- | --- |
| CC1(C)C(=O)N(Cl)C(=O)N1Br [1-bromo-3-chloro-5,5-dimethylhydantoin] | non-degradative; also recorded: unchanged |
| CCCCCCCCCC[N+](C)(C)CCCCCCCCCC.[Cl-] [Didecyldimethylammonium chloride] | unchanged |
| C/C=C/C=C/C(=O)[O-].[K+] [Potassium sorbate] | Brown |
| [Na+].[O-]c1ccccc1-c1ccccc1 [Sodium o-phenylphenolate] | White |
| [Na+].[O-][n+]1ccccc1[S-] [Sodium pyrithione] | Bright yellow |
| Oc1ccccc1-c1ccccc1 [o-phenylphenol] | White |
| Zinc pyrithione | White sediment |

Tested on: pool of 6 different Gram negative and Gram positive bacterial strains
Assay: Bacterial challenge test (TAUNOVATE III High Throughput testing system, MPN)
Format: cell-based
Conditions: 300 ppm biocide in HEUR; 30° C., repeated challenges
Procedure: Efficacy of all biocides were determined as described for 1-bromo-3-chloro-5,5-dimethylhydantion. The only difference was the concentration of the biocide, which is shown as a range in Table 1.
1-Bromo-3-chloro-5,5-dimethylhydantoin (0.5% aqueous solution) was prepared by dispersing Chlorox Pool and Spa (0.25 g in 49.75 g water). Unpreserved RM-2020E thickeners were dosed with biocide and challenge tested with bacteria using the TAUNOVATE℠ III High Throughput testing system. In general, the tested biocides were calibrated for density and prepared at levels 10× higher than the target concentrations using a robotic system. For example, to target 15 ppm and 40 ppm concentrations of 1-bromo-3-chloro-5,5-dimethylhydantoin respectively, 150 ppm and 400 ppm concentrations of 1-bromo-3-chloro-5,5-dimethylhydantoin were prepared by the automated system. […]
The inoculum was prepared by making a 1:1 pool of overnight cultures of 6 different Gram negative and Gram positive bacterial strains, and then diluted 1:20 with tryptic soy broth. […] Three additional challenges were performed 7 d apart with fresh bacterial cultures and growth recovery was assessed 1 and 7 d after inoculation. […]
(TSB) with indicator. […] The MPN was calculated to determine the relative growth scale rating, which is a measure of the passing or failure of the sample for growth. […]

| Compound | Challenge Test |
| --- | --- |
| CCCCCCCCCCCCNC(=N)N [Dodecylguanidine Hydrochloride] | Fail (The pass/fail criterion for biocide efficacy was determined by the formation of less than 1×10^4 colony forming units per mL (CFU/mL) of sample tested) |

Same assay, conditions: 400 ppm biocide in HEUR prepared with 10-15% surfactant; 30° C., repeated challenges

| Compound | Challenge Test |
| --- | --- |
| CCCCCCCCCC[N+](C)(C)CCCCCCCCCC.[Cl-] [Didecyldimethylammonium chloride] | Fail (The pass/fail criterion for biocide efficacy was determined by the formation of less than 1×10^4 colony forming units per mL (CFU/mL) of sample tested) |
